Data from patent publication US20050003008A1, “Method of in vivo drug targeting to solid tumors via acoustically triggered drug delivery in polymeric micelles” (priority 1997, published 2005).
In brackets after ≈: the same amount, converted by molar mass.

Legend:
[1] = test system: MDR ovarian carcinoma A2780/ADR cells; assay: Growth inhibition / cell kill of MDR ovarian carcinoma cells with Pluronic and ultrasound; format: cell-based; conditions: for IC75: A2780/ADR
Procedure: (§1) It should be noted that because of the cytostatic action of micelles, the inhibitory concentration IC50 values for drugs become meaningless; for example, upon 3-hour incubation with a drug-free 10% P-105 micelles followed by three days culturing in a PLURONIC-free RPMI 1640 medium, the growth inhibition of both sensitive and resistant cells exceeded 50%. […] For cases like this it would be more informative to compare, e.g., IC75 values.
As an example, when the MDR cell were incubated with drug-free 10% PLURONIC micelles for three hours, upon which they were sonicated for 10 minutes by 69-kHz ultrasound at 3.2 W/cm^2 and cultured for 72 hours, the growth of the MDR cell dropped to forty percent of the unsonicated non-incubated control.
For the MDR cells, PLURONIC and ultrasound effects are especially important. At the absence of micelles, only about forty percent of the MDR cells are killed at DOX or Rb concentrations as high as 100 μg/ml. However, when the MDR cells were incubated with 5 μg/ml DOX for three hours in the presence of a unimeric Pluronic solution followed by a 10-minute sonication by 69-kHz ultrasound at 3.2 W/cm^2, sixty six percent of the cells died upon subsequent cell culturing vs. fifty three percent without ultrasound; only fifteen percent of the MDR cells die upon incubation with 5 μg/ml DOX without Pluronic and ultrasound treatment.
Ultrasound-induced increased intracellular uptake was accompanied by a dramatic sensitization of the MDR cells to the action of DOX (FIG. 10). […] Even without ultrasound, IC50 of DOX in the MDR ovarian carcinoma cells dropped 50-fold in the presence of PLURONIC unimers and micelles.

[2] = test system: drug-sensitive ovarian carcinoma A2780 cells; assay: Growth inhibition of drug-sensitive ovarian carcinoma cells (IC75); format: cell-based
Procedure: as §1

[3] = test system: DNA; assay: Drug intercalation into DNA (fluorescence drop); format: binding; conditions: drug introduced from micellar solution
From the text: Ruboxyl and doxorubicin encapsulation in PLURONIC micelles restricted not only drug interaction with the cells, but also drug interaction with cell components, e.g. DNA.

[4] = test system: A2780 cells; assay: Survival of ovarian carcinoma-bearing mice; format: in vivo; conditions: DOX 3 mg/kg intraperitoneally in PLURONIC P-105 micelles, sonication one hour after injection
Procedure: A2780 cells (1×10^6) were inoculated intraperitoneally. DOX in PBS or PLURONIC P-105 micelles was injected intraperitoneally the next day after cell inoculation. Sonication of the abdominal region was performed one hour after DOX injection.

[5] = test system: HL-60 cells; assay: Intracellular drug uptake by HL-60 cells (lysate fluorescence); format: cell-based
Procedure: Intracellular uptake of doxorubicin and ruboxyl was measured using a fluorescence technique wherein compounds were excited at 488 nm and technical emission spectra were recorded at 510-700 nm. Two sets of samples were studied, incubated, and sonicated. Ultrasound was generated by a Sonicor SC100 sonication bath operating at 70 kHz and 37° C. Power density was controlled by adjusting the input voltage and was measured with a hydrophone.
For the first set of samples, the cells were incubated at 37° C. with doxorubicin or ruboxyl, which were either dissolved in the RPMI medium or PBS, or the drugs were solubilized in PLURONIC P-105 solutions of various concentrations. For the second set of samples, the cells were sonicated by 70 kHz ultrasound at 37° C. to assess the effect of ultrasound on the drug uptake from molecular and micellar solutions. After being incubated/sonicated with and without the drug, the cells were centrifuged, washed twice with cold PBS, resuspended in PBS, and the fluorescence spectra of cell suspensions were recorded. The fluorescence intensity of the untreated cells was subtracted from that of the drug-treated cells. Because drug fluorescence within the cells was substantially quenched, drug uptake was quantified by lysing the cells by incubating them with 1 wt % SDS solution for 1-2 hours at 37° C. This process transferred the drug from cellular components to SDS micelles. […] Upon the completion of cell lysis, fluorescence spectra of the lysates were recorded. To quantify the concentration of lysed cells, cell lysates were filtered through 0.2 μm filters, and their optical densities were measured by protein absorbance at 280 nm (OD 280 nm). […] The fluorescence intensity of lysates ws normalized by OD 280 nm.

[6] = test system: ovarian carcinoma drug-sensitive A2780 cells; assay: Intracellular DOX uptake by A2780 cells under 1 MHz ultrasound (flow cytometry); format: cell-based
Procedure: Fluorescence histograms of the A2780 cells incubated or sonicated in the presence of DOX are shown. The initial concentration of cells ranged from 3×10^6 to 5×10^6 cells/ml as determined using a hemacytometer. After exposure to DOX (10 μg/ml to 50 μg/ml in various experiments) and ultrasound (15 to 30 s), cells were counted again to measure the degree of sonolysis, upon which they were centrifuged, washed with PBS, fixed with a 3% formalin or 2.5% glutaraldehide, and analyzed by flow cytometry. Fluorescence histograms were recorded with a FACScan flow cytometer (Beckton Dickinson) and analyzed using CellQuest software supplied by the manufacturer. A minimum of 10,000 events was analyzed to generate each histogram.
The experiments on the effect of ultrasound on the intracellular DOX uptake with and without micelles were always conducted in parallel, at the same day and using the same batch of the cells.

[7] = test system: MDR ovarian carcinoma A2780/ADR cells; assay: Growth inhibition / cell kill of MDR ovarian carcinoma cells with Pluronic and ultrasound; format: cell-based; conditions: 10-min sonication by 67-kHz ultrasound
[8] = test system: A2780 tumor; assay: In vivo DOX uptake by sonicated A2780 tumor
[9] = test system: HL-60 cells; conditions: combination of micellar delivery and ultrasonication; cited from earlier work
[10] = Ultrasound-triggered drug release from PLURONIC P-105 micelles; format: physicochemical
From the text: The measurements of the degree of drug release are based on the decrease of DOX fluorescence intensity when DOX is transferred from the hydrophobic environment of micelle cores to the aqueous environment. An argon-ion laser beam of 488 nm was directed to a drug-containing cuvette to excite fluorescence. The emissions were collected using a fiber optic collector and filtered to remove the excitation wavelength. The emissions were quantified using a photodetector, digitized with a 12-bit A/D converter, and stored in a Macintosh computer for further analysis.
Digitized fluorescence intensity data were analyzed to calculate the percent of the drug release from micelles. A fluorescence intensity of a 10 μg/ml DOX solution in PBS (IPBS) was measured first; the PBS solution was then carefully sucked out of the cuvette and replaced with a 10 μg/ml DOX solution in 10% PLURONIC P-105 micelles. Fluorescence of this solution (Imic) was measured, and a difference Imic−IPBS was assumed to correspond to a […] drug release from micelles. Then, ultrasound was switched on, and DOX fluorescence under sonication (Ius) was recorded; if sonication induced partial drug release from micelles into the aqueous environment, Ius was lower than Imic; the “ultrasound on”-“ultrasound off” cycles were repeated several times to check reproducibility. The length of each ultrasound exposure cycle was 1 to 2 minutes. […] The degree of drug release (DDR) was calculated as follows: DDR={[Imic−Ius]/[Imic−IPBS]}×100

[11] = Effects of PLURONIC micelles and ultrasound on drug uptake and cytotoxicity, other drugs; format: cell-based
From the text: It is important to note that the effects of PLURONIC micelles and ultrasound on drug uptake and cytotoxicity described above for DOX were also observed for another anthracycline drug, Ruboxyl. […] This implies that the new modality of drug delivery described here will have general applicability to a wide variety of drugs and drug delivery systems.

[12] = test system: breast and colon carcinomas and bone sarcoma; conditions: cited from earlier work
[13] = Drug partitioning between PLURONIC micelles and polystyrene latex particles; format: physicochemical
Procedure: To study solute release from PLURONIC micelles, the partitioning of the solute between the micelles and the surface of polystyrene latex particles was investigated. A spin probe, DSTA, or the drug, ruboxyl, was solubilized in PLURONIC P-105 solutions of various concentrations. A suspension of polystyrene latex particles (average diameter 0.9 μm, 50 μl/ml) was incubated with 1 ml of DSTA or ruboxyl solution in PLURONIC P-105, and depletion of the probe in the supernatant was measured by the EPR (for DSTA) or fluorescence (for ruboxyl) technique upon polystyrene particle separation.
An important question pertinent to this research was how tightly the solubilized drug was associated with PLURONIC micelles. To investigate this problem, ruboxyl adsorption on polystyrene latex particles was measured from molecular solutions of ruboxyl in PBS and from micellar PLURONIC solutions. Ruboxyl readily adsorbs onto polystyrene surfaces. About 90% of the drug is transferred onto polystyrene surface from ruboxyl solutions in PBS. PLURONIC micelles, however, compete for ruboxyl with polystyrene surfaces; only about 40% of ruboxyl solubilized in PLURONIC micelles (20 wt % solutions of PLURONIC P-105) is transferred onto the polystyrene surface, the remainder being retained within the PLURONIC micelles.

[14] = test system: leukosis, La, P-388, and L-1210; solid tumors; conditions: P-388, L-1210 in mice, solid tumors in rats; cited from earlier work
[15] = absence of micelles, drug concentration 100 μg/ml
[16] = PLURONIC concentration 0.1%, below CMC
[17] = drug sequestered in dense PLURONIC P-105 micelles vs free drug

COc1cccc2c1C(=O)c1c(O)c3c(c(O)c1C2=O)C[C@@](O)(C(=O)CO)C[C@@H]3O[C@H]1C[C@H](N)[C@H](O)[C@H](C)O1 [DOX, Doxorubicin]
MDR cells died ([1]; 5 μg/ml DOX three hours in unimeric Pluronic solution, 10-minute sonication 69-kHz 3.2 W/cm^2): sixty six | MDR cells died ([1]; 5 μg/ml DOX three hours in unimeric Pluronic solution, without ultrasound): fifty three | MDR cells died ([1]; 5 μg/ml DOX without Pluronic and ultrasound treatment): fifteen | IC75 ([1]; P-105 0.1% (unimers)): 12 ± 2 µg/mL (≈ 22.1 µM) | IC75 ([1]; P-105 10% (micelles)): 16 ± 2 µg/mL (≈ 29.4 µM) | IC75 ([1]; RPMI (no Pluronic)): >100 µg/mL | MDR cells killed ([1]; PLURONIC micelle and ultrasound, DOX concentration 0.78 μg/ml): 100% | MDR cells killed [1, 15]: about forty | fraction of MDR cells highly resistant to DOX ([1]; conventional medium, DOX 50 μg/ml): about 55% | fraction of MDR cells highly resistant to DOX ([1]; in the presence of PLURONIC micelles): completely eliminated | drop of IC50 of DOX ([1]; presence of PLURONIC unimers and micelles, without ultrasound): 50 fold | IC75 ([2]; A2780, P-105 0.1% (unimers)): 1.3 µg/mL (≈ 2.39 µM) | IC75 ([2]; A2780, P-105 10% (micelles)): 1.3 µg/mL (≈ 2.39 µM) | IC75 ([2]; A2780, RPMI (no Pluronic)): 1.3 µg/mL (≈ 2.39 µM) | drug-DNA interaction [3]: lower drug-DNA interaction | life span vs conventional drug introduction [4]: much longer | drug uptake by HL-60 cells [5, 16]: somewhat enhanced | drug uptake by HL-60 cells [5, 17]: substantial decrease | DOX uptake, sonicated vs unsonicated cells ([6]; sonicated 15 s vs unsonicated incubated 30 min, same DOX concentration): significantly higher | intracellular uptake of DOX ([6]; sonication at 1 MHz, from PBS or RPMI 1640): substantially increased | fraction of MDR cells highly resistant to DOX [7]: about 30% | DOX uptake by other organs under ultrasound ([8]; 3-MHz ultrasound): not affected | DOX uptake by cells of the sonicated tumor ([8]; DOX 6 mg/kg intravenously, 1 MHz or 3 MHz ultrasound 1.7 W/cm2): dramatically enhanced | effective drug dose [9]: substantial decrease | power density required for 10% DOX release ([10]; 1.0-MHz ultrasound): 7.2 W/cm^2 | power density required for 10% DOX release ([10]; 20-kHz ultrasound): 0.058 W/cm^2 | power density required for 10% DOX release ([10]; 67-kHz ultrasound): 2.8 W/cm^2

COc1cccc2c1C(=O)c1c(O)c3c(c(O)c1C2=O)C[C@@](O)(/C(C)=N/N=C1CC(C)(C)N(O)C(C)(C)C1)C[C@@H]3O[C@H]1C[C@H](N)[C@H](O)[C@H](C)O1.Cl [Rb, ruboxyl]
IC75 ([1]; P-105 10% (micelles)): 17 ± 3 µg/mL | IC75 ([1]; RPMI (no Pluronic)): >100 µg/mL | MDR cells killed [1, 15]: about forty | IC75 ([2]; A2780, P-105 10% (micelles)): 0.9 µg/mL | IC75 ([2]; A2780, RPMI (no Pluronic)): 1.5 µg/mL | drug-DNA interaction [3]: lower drug-DNA interaction | effects of PLURONIC micelles and ultrasound on drug uptake and cytotoxicity [11]: also observed | clinical efficacy ([12]; breast and colon carcinomas and bone sarcoma): effective | cardiotoxicity ([12]; clinical trials): reduced | drug uptake by HL-60 cells [5, 16]: somewhat enhanced | drug uptake by HL-60 cells [5, 17]: substantial decrease | drug transferred onto polystyrene surface ([13]; from ruboxyl solutions in PBS): About 90% | drug transferred onto polystyrene surface ([13]; solubilized in PLURONIC micelles (20 wt % PLURONIC P-105)): about 40% | anti-tumor activity [14]: high

CC(=O)O[C@H]1C(=O)[C@@]2(C)[C@H]([C@H](OC(=O)c3ccccc3)[C@]3(O)C[C@H](OC(=O)[C@H](O)[C@@H](NC(=O)c4ccccc4)c4ccccc4)C(C)=C1C3(C)C)[C@]1(OC(C)=O)CO[C@@H]1C[C@@H]2O [taxol]
effects of PLURONIC micelles and ultrasound on drug uptake and cytotoxicity [11]: promising results
